Counter-ions that a name gives are not always drawn.
Assays:
[1] = target: KDR (phospho-KDR, VEGF165-stimulated HUVEC cells) (Homo sapiens (Human), UniProt P35968); test: KDR autophosphorylation ELISA in HUVEC cells (Example G); assay type: cell-based; conditions: cellular activity; KDR autophosphorylation ELISA in HUVEC cells
How it was run: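 Read-out is phospho-KDR measured by ELISA in lysates of VEGF165-stimulated (100 ng/mL, 5 min) HUVEC that were serum-starved 24 h and then pre-exposed 1 h to compound across 8 doses in 0.3% DMSO. Unstimulated lysates defined 0% and stimulated vehicle lysates 100% activity; IC50 values come from 4-parameter logistic regression.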

[2] = target: Met (phospho-Met, HGF-stimulated PC-3 prostate cancer cells) (Homo sapiens (Human), UniProt P08581); test: Met autophosphorylation ELISA in PC-3 cells (Example F); assay type: cell-based; conditions: cellular activity; Met autophosphorylation ELISA in PC-3 cells; read-out: c-Met IC50
How it was run: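 Sandwich ELISA for phospho-Met (panTyr) in PC-3 lysates. Cells starved 3 h serum-free, compound 1 h (8-pt curve, 0.3% DMSO), HGF 100 ng/mL 10 min. 100% = HGF + DMSO; 0% = HGF + reference inhibitor. IC50 by 4-parameter fit.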

Chain of KDR (phospho-KDR, VEGF165-stimulated HUVEC cells) (P35968 20-1356): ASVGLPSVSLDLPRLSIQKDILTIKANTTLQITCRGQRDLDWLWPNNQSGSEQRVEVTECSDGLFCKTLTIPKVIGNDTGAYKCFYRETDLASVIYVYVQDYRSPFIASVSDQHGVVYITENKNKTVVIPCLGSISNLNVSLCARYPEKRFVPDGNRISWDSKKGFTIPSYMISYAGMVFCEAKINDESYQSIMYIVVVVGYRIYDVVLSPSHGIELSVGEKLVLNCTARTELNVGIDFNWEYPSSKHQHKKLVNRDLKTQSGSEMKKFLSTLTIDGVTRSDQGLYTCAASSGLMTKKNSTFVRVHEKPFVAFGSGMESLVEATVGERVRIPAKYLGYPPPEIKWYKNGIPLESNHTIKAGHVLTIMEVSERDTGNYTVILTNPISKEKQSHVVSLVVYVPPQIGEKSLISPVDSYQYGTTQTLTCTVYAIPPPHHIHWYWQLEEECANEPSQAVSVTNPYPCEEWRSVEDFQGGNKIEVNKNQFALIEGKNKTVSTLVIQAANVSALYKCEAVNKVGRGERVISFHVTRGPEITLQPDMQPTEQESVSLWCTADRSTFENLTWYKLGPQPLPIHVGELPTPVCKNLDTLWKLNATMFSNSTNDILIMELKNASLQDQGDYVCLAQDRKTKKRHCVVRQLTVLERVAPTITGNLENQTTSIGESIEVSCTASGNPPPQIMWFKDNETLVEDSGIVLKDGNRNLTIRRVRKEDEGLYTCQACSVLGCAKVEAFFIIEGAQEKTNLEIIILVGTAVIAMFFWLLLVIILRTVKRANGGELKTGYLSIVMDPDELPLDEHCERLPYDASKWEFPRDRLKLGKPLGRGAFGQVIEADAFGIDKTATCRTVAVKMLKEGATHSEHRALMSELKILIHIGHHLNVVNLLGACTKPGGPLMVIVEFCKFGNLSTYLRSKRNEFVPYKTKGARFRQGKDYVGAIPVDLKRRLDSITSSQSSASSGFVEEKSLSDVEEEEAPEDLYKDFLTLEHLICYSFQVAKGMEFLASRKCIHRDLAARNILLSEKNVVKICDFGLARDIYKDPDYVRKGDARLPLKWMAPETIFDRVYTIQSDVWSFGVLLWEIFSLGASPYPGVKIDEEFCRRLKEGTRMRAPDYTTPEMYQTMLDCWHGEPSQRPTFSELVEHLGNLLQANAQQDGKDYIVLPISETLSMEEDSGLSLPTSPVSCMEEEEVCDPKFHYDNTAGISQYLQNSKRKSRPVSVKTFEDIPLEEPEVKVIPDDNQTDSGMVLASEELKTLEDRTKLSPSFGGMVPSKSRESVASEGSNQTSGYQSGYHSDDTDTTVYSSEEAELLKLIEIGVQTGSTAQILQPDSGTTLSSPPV
Chain of Met (phospho-Met, HGF-stimulated PC-3 prostate cancer cells) (P08581 25-1390): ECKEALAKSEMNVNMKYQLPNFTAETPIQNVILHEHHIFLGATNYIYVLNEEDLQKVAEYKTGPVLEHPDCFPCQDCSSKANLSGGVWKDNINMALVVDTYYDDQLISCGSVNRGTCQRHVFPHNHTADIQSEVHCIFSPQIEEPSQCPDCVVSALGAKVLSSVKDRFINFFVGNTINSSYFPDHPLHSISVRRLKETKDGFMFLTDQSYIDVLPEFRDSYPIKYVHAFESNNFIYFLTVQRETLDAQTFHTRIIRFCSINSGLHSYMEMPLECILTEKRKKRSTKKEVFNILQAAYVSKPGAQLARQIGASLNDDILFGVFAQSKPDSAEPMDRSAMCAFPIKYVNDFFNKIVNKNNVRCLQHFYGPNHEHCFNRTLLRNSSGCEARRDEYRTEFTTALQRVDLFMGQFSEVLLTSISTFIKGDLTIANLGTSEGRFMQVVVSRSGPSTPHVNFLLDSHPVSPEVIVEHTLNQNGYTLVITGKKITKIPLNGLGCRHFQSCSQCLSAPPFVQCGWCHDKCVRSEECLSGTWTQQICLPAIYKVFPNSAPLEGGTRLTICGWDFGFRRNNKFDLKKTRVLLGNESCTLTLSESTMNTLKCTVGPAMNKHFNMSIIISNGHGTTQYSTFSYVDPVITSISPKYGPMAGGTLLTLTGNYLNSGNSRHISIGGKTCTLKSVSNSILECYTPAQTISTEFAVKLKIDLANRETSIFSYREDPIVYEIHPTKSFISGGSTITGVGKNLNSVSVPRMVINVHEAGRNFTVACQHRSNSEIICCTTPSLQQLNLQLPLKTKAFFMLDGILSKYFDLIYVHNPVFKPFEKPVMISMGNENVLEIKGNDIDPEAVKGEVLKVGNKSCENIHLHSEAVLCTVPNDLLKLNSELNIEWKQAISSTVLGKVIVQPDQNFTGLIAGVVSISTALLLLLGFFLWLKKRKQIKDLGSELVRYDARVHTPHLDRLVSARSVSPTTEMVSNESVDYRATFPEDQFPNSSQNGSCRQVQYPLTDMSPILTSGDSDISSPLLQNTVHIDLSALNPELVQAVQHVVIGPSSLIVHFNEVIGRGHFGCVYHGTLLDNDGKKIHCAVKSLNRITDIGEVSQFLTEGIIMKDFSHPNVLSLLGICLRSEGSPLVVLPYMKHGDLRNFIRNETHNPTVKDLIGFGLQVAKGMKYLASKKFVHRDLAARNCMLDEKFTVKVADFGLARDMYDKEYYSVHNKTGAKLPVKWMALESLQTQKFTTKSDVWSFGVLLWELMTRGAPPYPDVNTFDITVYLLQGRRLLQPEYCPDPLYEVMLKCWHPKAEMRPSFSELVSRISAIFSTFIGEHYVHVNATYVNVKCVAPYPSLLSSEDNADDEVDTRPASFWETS

Q: With `COc1ccc2nccc(Oc3ccc(NC(=O)c4cn(C(C)C)c(C)c(-c5ccc(F)cc5)c4=O)cc3)c2n1` [Compound 341, 5-(4-fluorophenyl)-N-[4-[(6-methoxy-1,5-naphthyridin-4-yl)oxy]phenyl]-6-methyl-4-oxo-1-propan-2-ylpyridine-3-carboxamide] as the compound, how does the IC50 [1] read?
A: > 300 nM

Q: What about the IC50 [2] of the same compound?
A: < 100 nM

Q: Which results are given for `Cc1nc(C)c(-c2ccc(F)cc2)c(O)c1C(=O)Nc1ccc(Oc2ccnc3ccc(OCCN(C)C)nc23)c(F)c1` [Compound 354, N-[4-[[6-[2-(dimethylamino)ethoxy]-1,5-naphthyridin-4-yl]oxy]-3-fluorophenyl]-5-(4-fluorophenyl)-4-hydroxy-2,6-dimethylpyridine-3-carboxamide]?
A: IC50 [1]: < 100 nM; IC50 [2]: < 100 nM

Q: With `COCCOc1ccc2nccc(Oc3ccc(NC(=O)c4ccc(C)n(-c5ccc(F)cc5)c4=O)cc3F)c2n1` [Compound 350, N-[3-fluoro-4-[[6-(2-methoxyethoxy)-1,5-naphthyridin-4-yl]oxy]phenyl]-1-(4-fluorophenyl)-6-methyl-2-oxopyridine-3-carboxamide] as the compound, how does the IC50 [1] read?
A: < 100 nM

Q: What about the IC50 [2] of the same compound?
A: < 100 nM

Q: Which results are given for `COc1cnc2c(Oc3ccc(NC(=O)c4cn(C)cc(-c5ccccc5)c4=O)cc3F)ccnc2c1` [Compound 40, N-[3-Fluoro-4-[(7-methoxy-1,5-naphthyridin-4-yl)oxy]phenyl]-1-methyl-4-oxo-5-phenylpyridine-3-carboxamide hydrochloride]?
A: IC50 [1]: < 100 nM; IC50 [2]: < 100 nM

Q: What does the source list for `COc1ccc2nccc(Oc3ccc(NC(=O)c4c(C)cc(C)n(-c5ccc(F)cc5)c4=O)cc3)c2n1` [Compound 290, 1-(4-Fluorophenyl)-N-[4-[(6-methoxy-1,5-naphthyridin-4-yl)oxy]phenyl]-4,6-dimethyl-2-oxopyridine-3-carboxamide]?
A: IC50 [1]: < 100 nM; IC50 [2]: < 100 nM

Q: What does the source list for `COc1cnc2c(Oc3ccc(NC(=O)c4nccn(-c5ccc(F)cc5)c4=O)cc3)ccnc2c1` [Compound 382, 4-(4-fluorophenyl)-N-[4-[(7-methoxy-1,5-naphthyridin-4-yl)oxy]phenyl]-3-oxopyrazine-2-carboxamide]?
A: IC50 [1]: > 300 nM; IC50 [2]: < 100 nM

Q: How did the IC50 [1] turn out when `COc1cnc2c(Oc3ccc(NC(=O)c4ncc(C)n(-c5ccc(F)cc5)c4=O)cc3)ccnc2c1` [Compound 263, 4-(4-Fluorophenyl)-N-[4-[(7-methoxy-1,5-naphthyridin-4-yl)oxy]phenyl]-5-methyl-3-oxopyrazine-2-carboxamide] was run?
A: > 300 nM

Q: And the IC50 [2]?
A: < 100 nM

Q: Which results are given for `COc1ccc2nccc(Oc3ccc(NC(=O)c4cnc(C)c(-c5ccc(F)cc5)c4O)cc3F)c2c1` [Compound 347, N-[3-fluoro-4-(6-methoxyquinolin-4-yl)oxyphenyl]-5-(4-fluorophenyl)-4-hydroxy-6-methylpyridine-3-carboxamide]?
A: IC50 [1]: < 100 nM; IC50 [2]: < 100 nM

Q: Which IC50 [1] does the source give for `COc1ccc2nccc(Oc3ccc(NC(=O)c4cccn(-c5ccc(F)cc5)c4=O)cc3F)c2n1` [Compound 292, N-[3-Fluoro-4-[(6-methoxy-1,5-naphthyridin-4-yl)oxy]phenyl]-1-(4-fluorophenyl)-2-oxopyridine-3-carboxamide] here?
A: < 100 nM

Q: What about the IC50 [2] of the same compound?
A: < 100 nM

Q: What does the source list for `COCc1ncc(C(=O)Nc2ccc(Oc3ccnc4cc(OC)c(OC)nc34)c(F)c2)c(O)c1-c1ccc(F)cc1` [Compound 301, N-[4-[(6,7-Dimethoxy-1,5-naphthyridin-4-yl)oxy]-3-fluorophenyl]-5-(4-fluorophenyl)-4-hydroxy-6-(methoxymethyl)pyridine-3-carboxamide]?
A: IC50 [1]: < 100 nM; IC50 [2]: < 100 nM

Q: What does the source list for `COc1cc2nccc(Oc3cc(F)c(NC(=O)c4cn(C)c(C)c(-c5ccc(F)cc5)c4=O)cc3F)c2nc1OC` [Compound 391, N-[4-[(6,7-dimethoxy-1,5-naphthyridin-4-yl)oxy]-2,5-difluorophenyl]-5-(4-fluorophenyl)-1,6-dimethyl-4-oxopyridine-3-carboxamide]?
A: IC50 [1]: > 300 nM; IC50 [2]: < 100 nM

Q: For `CCn1cc(C(=O)Nc2ccc(Oc3ccnc4cc(OC)cnc34)c(F)c2)c(=O)c(-c2ccc(F)cc2C)c1CO` [Compound 285, 1-Ethyl-N-[3-fluoro-4-[(7-methoxy-1,5-naphthyridin-4-yl)oxy]phenyl]-5-(4-fluoro-2-methylphenyl)-6-(hydroxymethyl)-4-oxopyridine-3-carboxamide], which IC50 [1] is on record?
A: > 300 nM

Q: And the IC50 [2]?
A: < 100 nM

Q: For `COc1cc2nccc(Oc3ncc(NC(=O)c4cn(C5CN(C)C5)cc(-c5ccc(F)cc5)c4=O)cc3F)c2cc1OC` [Compound 400, N-[6-(6,7-dimethoxyquinolin-4-yl)oxy-5-fluoropyridin-3-yl]-5-(4-fluorophenyl)-1-(1-methylazetidin-3-yl)-4-oxopyridine-3-carboxamide], which IC50 [1] is on record?
A: > 300 nM

Q: What about the IC50 [2] of the same compound?
A: < 100 nM

Q: Which results are given for `Cc1cc(C)n(-c2ccc(F)cc2)c(=O)c1C(=O)Nc1ccc(Oc2ccnc3cccnc23)c(F)c1` [Compound 295, N-[3-Fluoro-4-(1,5-naphthyridin-4-yloxy)phenyl]-1-(4-fluorophenyl)-4,6-dimethyl-2-oxopyridine-3-carboxamide]?
A: IC50 [1]: < 100 nM; IC50 [2]: < 100 nM

Q: Which IC50 [1] does the source give for `COc1ccc2nccc(Oc3ccc(NC(=O)c4c(C)ccn(-c5ccc(F)cc5)c4=O)cc3F)c2n1` [Compound 287, N-[3-Fluoro-4-[(6-methoxy-1,5-naphthyridin-4-yl)oxy]phenyl]-1-(4-fluorophenyl)-4-methyl-2-oxopyridine-3-carboxamide] here?
A: < 100 nM

Q: What about the IC50 [2] of the same compound?
A: < 100 nM

Q: `COc1ccc2nccc(Oc3ccc(NC(=O)c4c(C)cc(C)n(-c5ccc(F)cc5)c4=O)cc3F)c2n1` [Compound 281, N-[3-Fluoro-4-[(6-methoxy-1,5-naphthyridin-4-yl)oxy]phenyl]-1-(4-fluorophenyl)-4,6-dimethyl-2-oxopyridine-3-carboxamide] was tested. Which IC50 [1] did it give?
A: < 100 nM

Q: And the IC50 [2]?
A: < 100 nM

Q: What does the source list for `COc1cc2nccc(Oc3ccc(NC(=O)c4cn(C)c(C)c(-c5ccc(F)cc5)c4=O)c(F)c3)c2nc1OC` [Compound 389, N-[4-[(6,7-dimethoxy-1,5-naphthyridin-4-yl)oxy]-2-fluorophenyl]-5-(4-fluorophenyl)-1,6-dimethyl-4-oxopyridine-3-carboxamide]?
A: IC50 [1]: > 300 nM; IC50 [2]: < 100 nM

Q: Which IC50 [1] does the source give for `COc1cnc2c(Oc3ccc(NC(=O)c4c(C)ccn(-c5ccc(F)cc5)c4=O)cc3F)ccnc2c1` [Compound 294, N-[3-Fluoro-4-[(7-methoxy-1,5-naphthyridin-4-yl)oxy]phenyl]-1-(4-fluorophenyl)-4-methyl-2-oxopyridine-3-carboxamide] here?
A: < 100 nM

Q: What about the IC50 [2] of the same compound?
A: < 100 nM

Q: Which results are given for `Cc1ncc(C(=O)Nc2ccc(Oc3ccnc4cc(-c5cnn(C(F)F)c5)ccc34)cc2)c(O)c1-c1ccc(F)cc1` [Compound 377, N-[4-[7-[1-(difluoromethyl)pyrazol-4-yl]quinolin-4-yl]oxyphenyl]-5-(4-fluorophenyl)-4-hydroxy-6-methylpyridine-3-carboxamide]?
A: IC50 [1]: < 100 nM; IC50 [2]: < 100 nM

Q: How did the IC50 [1] turn out when `COc1cnc2c(Oc3ccc(NC(=O)c4nccn(-c5ccc(F)cc5)c4=O)cc3F)ccnc2c1` [Compound 381, N-[3-fluoro-4-[(7-methoxy-1,5-naphthyridin-4-yl)oxy]phenyl]-4-(4-fluorophenyl)-3-oxopyrazine-2-carboxamide] was run?
A: > 300 nM

Q: And the IC50 [2]?
A: < 100 nM

Q: `COc1cc2nccc(Oc3ccc(NC(=O)c4cc(C(C)C)c(C)n(-c5ccc(F)cc5)c4=O)cc3F)c2nc1OC` [Compound 368, N-[4-[(6,7-dimethoxy-1,5-naphthyridin-4-yl)oxy]-3-fluorophenyl]-1-(4-fluorophenyl)-6-methyl-2-oxo-5-propan-2-ylpyridine-3-carboxamide] was tested. Which IC50 [1] did it give?
A: < 100 nM

Q: And the IC50 [2]?
A: < 100 nM

Q: Which results are given for `CCn1cc(C(=O)Nc2ccc(Oc3ccnc4cc(OC)cnc34)cc2)c(=O)c(-c2ccc(F)cc2)c1CO` [Compound 274, 1-Ethyl-5-(4-fluorophenyl)-6-(hydroxymethyl)-N-[4-[(7-methoxy-1,5-naphthyridin-4-yl)oxy]phenyl]-4-oxopyridine-3-carboxamide]?
A: IC50 [1]: > 300 nM; IC50 [2]: < 100 nM

Q: Which IC50 [1] does the source give for `COc1cnc2c(Oc3ccc(NC(=O)c4cccn(-c5ccc(F)cc5)c4=O)cc3F)ccnc2c1` [Compound 291, N-[3-Fluoro-4-[(7-methoxy-1,5-naphthyridin-4-yl)oxy]phenyl]-1-(4-fluorophenyl)-2-oxopyridine-3-carboxamide] here?
A: < 100 nM

Q: And the IC50 [2]?
A: < 100 nM

Q: Which results are given for `COc1cc2nccc(Oc3ccc(NC(=O)c4nccn(-c5ccc(F)cc5)c4=O)cc3)c2nc1OC` [Compound 384, N-[4-[(6,7-dimethoxy-1,5-naphthyridin-4-yl)oxy]phenyl]-4-(4-fluorophenyl)-3-oxopyrazine-2-carboxamide]?
A: IC50 [1]: < 100 nM; IC50 [2]: < 100 nM

Q: Which IC50 [1] does the source give for `COc1cc2nccc(Oc3ccc(NC(=O)c4c(C)cc(C)n(-c5ccc(F)cc5)c4=O)cc3F)c2nc1OC` [Compound 279, N-[4-[(6,7-Dimethoxy-1,5-naphthyridin-4-yl)oxy]-3-fluorophenyl]-1-(4-fluorophenyl)-4,6-dimethyl-2-oxopyridine-3-carboxamide] here?
A: < 100 nM

Q: What about the IC50 [2] of the same compound?
A: < 100 nM

Q: With `COc1ccc2nccc(Oc3ccc(NC(=O)c4ccc(C)n(-c5ccc(F)cc5C)c4=O)cc3)c2n1` [Compound 276, 1-(4-Fluoro-2-methylphenyl)-N-[4-[(6-methoxy-1,5-naphthyridin-4-yl)oxy]phenyl]-6-methyl-2-oxopyridine-3-carboxamide] as the compound, how does the IC50 [1] read?
A: < 100 nM

Q: What about the IC50 [2] of the same compound?
A: 100 to 300 nM

Q: Which IC50 [1] does the source give for `COc1ccc2nccc(Oc3ccc(NC(=O)c4c(C)cc(C)n(-c5ccc(F)cc5C)c4=O)cc3F)c2n1` [Compound 296, N-[3-Fluoro-4-[(6-methoxy-1,5-naphthyridin-4-yl)oxy]phenyl]-1-(4-fluoro-2-methylphenyl)-4,6-dimethyl-2-oxopyridine-3-carboxamide] here?
A: < 100 nM

Q: What about the IC50 [2] of the same compound?
A: < 100 nM

— patent publication US12371428B2 (Exelixis, Inc., priority 2019, dated 2025)
